Data taken from publication doi:10.1101/2024.08.19.608619, “Discovery of potent SARS-CoV-2 nsp3 macrodomain inhibitors uncovers lack of translation to cellular antiviral response” (bioRxiv, 2024).
Like-named read-outs stand apart in the source and are kept apart here.

Key:
SARS-CoV-2 nsp3-mac1 [1] = target: T1, SARS-CoV-2 nsp3-mac1 (Severe acute respiratory syndrome coronavirus 2, UniProt P0DTD1); assay: biochemical; type: biochemical; conditions: SARS-CoV-2 nsp3 macrodomain TR-FRET single point, n=2
SARS-CoV-2 nsp3-mac1 [2] = target: T1, SARS-CoV-2 nsp3-mac1; assay: biochemical; design: SARS-CoV-2 nsp3 macrodomain TR-FRET single point, per cent inhibition, n=2
[3] = read-out: perc_inhibition_mean, batch_name=ASAP-0000302-001
[4] = read-out: perc_inhibition_mean, batch_name=ASAP-0000303-001
[5] = read-out: perc_inhibition_mean, batch_name=ASAP-0000304-001
[6] = read-out: perc_inhibition_mean, batch_name=ASAP-0000305-001
[7] = read-out: perc_inhibition_mean, batch_name=ASAP-0000306-001
[8] = read-out: perc_inhibition_mean, batch_name=ASAP-0000307-001
[9] = read-out: perc_inhibition_mean, batch_name=ASAP-0000308-001
[10] = read-out: perc_inhibition_mean, batch_name=ASAP-0000309-001
[11] = read-out: perc_inhibition_mean, batch_name=ASAP-0000310-001
[12] = read-out: perc_inhibition_mean, batch_name=ASAP-0000311-001
[13] = read-out: perc_inhibition_mean, batch_name=ASAP-0000312-001
[14] = read-out: perc_inhibition_mean, batch_name=ASAP-0000313-001
[15] = read-out: perc_inhibition_mean, batch_name=ASAP-0000314-001
[16] = read-out: perc_inhibition_mean, batch_name=ASAP-0000315-001
[17] = read-out: perc_inhibition_mean, batch_name=ASAP-0000316-001
[18] = read-out: perc_inhibition_mean, batch_name=ASAP-0000317-001
[19] = read-out: perc_inhibition_mean, batch_name=ASAP-0000318-001
[20] = read-out: perc_inhibition_mean, batch_name=ASAP-0000319-001

SMILES	perc_inhibition_mean (SARS-CoV-2 nsp3-mac1 [1]; concentration 49.75 uM)	perc_inhibition_mean (SARS-CoV-2 nsp3-mac1 [1]; concentration 99.5 uM)	other results
C[C@@H]1[C@H](O)CCCN1C(=O)c1ccc(NC(=O)Nc2ccccc2)cc1 [ASAP-0000302]	-2.963%	-2.724%	inhibition at 49.75 µM (SARS-CoV-2 nsp3-mac1 [2]; [3]): -2.96%; inhibition at 99.5 µM (SARS-CoV-2 nsp3-mac1 [2]; [3]): -2.72%
O=C(Nc1ccccc1)Nc1ccc(C(=O)N2CCn3nccc3C2)cc1 [ASAP-0000303]	-3.111%	2.299%	inhibition at 49.75 µM (SARS-CoV-2 nsp3-mac1 [2]; [4]): -3.11%; inhibition at 99.5 µM (SARS-CoV-2 nsp3-mac1 [2]; [4]): 2.3%
O=C(Nc1ccccc1)Nc1ccc(C(=O)NCc2ccnc(F)c2)cc1 [ASAP-0000304]	-0.36%	4.92%	inhibition at 49.75 µM (SARS-CoV-2 nsp3-mac1 [2]; [5]): -0.36%; inhibition at 99.5 µM (SARS-CoV-2 nsp3-mac1 [2]; [5]): 4.92%
CC1(C)CNCCN1C(=O)c1ccc(NC(=O)Nc2ccccc2)cc1 [ASAP-0000305]	2.242%	1.393%	inhibition at 49.75 µM (SARS-CoV-2 nsp3-mac1 [2]; [6]): 2.24%; inhibition at 99.5 µM (SARS-CoV-2 nsp3-mac1 [2]; [6]): 1.39%
NCC(F)(F)CNC(=O)c1ccc(NC(=O)Nc2ccccc2)cc1 [ASAP-0000306]	-0.965%	-1.174%	inhibition at 49.75 µM (SARS-CoV-2 nsp3-mac1 [2]; [7]): -0.965%; inhibition at 99.5 µM (SARS-CoV-2 nsp3-mac1 [2]; [7]): -1.17%
Cn1cc(NC(=O)c2ccc(NC(=O)Nc3ccccc3)cc2)c(C#N)n1 [ASAP-0000307]	2.492%	-0.539%	inhibition at 49.75 µM (SARS-CoV-2 nsp3-mac1 [2]; [8]): 2.49%; inhibition at 99.5 µM (SARS-CoV-2 nsp3-mac1 [2]; [8]): -0.539%
O=C(Nc1ccccc1)Nc1ccc(C(=O)NCCc2cccnc2)cc1 [ASAP-0000308]	1.269%	10.372%	inhibition at 49.75 µM (SARS-CoV-2 nsp3-mac1 [2]; [9]): 1.27%; inhibition at 99.5 µM (SARS-CoV-2 nsp3-mac1 [2]; [9]): 10.4%
COc1cccc(NC(=O)c2ccc(NC(=O)Nc3ccccc3)cc2)n1 [ASAP-0000309]	4.647%	5.367%	inhibition at 49.75 µM (SARS-CoV-2 nsp3-mac1 [2]; [10]): 4.65%; inhibition at 99.5 µM (SARS-CoV-2 nsp3-mac1 [2]; [10]): 5.37%
O=C(O)c1sccc1C(=O)N1CCC(c2ccn3ncc(C(=O)N4CCCCC4)c3c2)CC1 [ASAP-0000310]	55.49%	71.528%	inhibition at 49.75 µM (SARS-CoV-2 nsp3-mac1 [2]; [11]): 55.5%; inhibition at 99.5 µM (SARS-CoV-2 nsp3-mac1 [2]; [11]): 71.5%
O=C(CCN(Cc1cccc(Cl)c1)C(=O)c1ccccc1F)N1CCNCC1 [ASAP-0000311]	-0.625%	0.395%	inhibition at 49.75 µM (SARS-CoV-2 nsp3-mac1 [2]; [12]): -0.625%; inhibition at 99.5 µM (SARS-CoV-2 nsp3-mac1 [2]; [12]): 0.395%
C[C@]1(C(=O)N(CCC(=O)N2CCNCC2)Cc2cccc(Cl)c2)CCCN1 [ASAP-0000312]	1.403%	2.129%	inhibition at 49.75 µM (SARS-CoV-2 nsp3-mac1 [2]; [13]): 1.4%; inhibition at 99.5 µM (SARS-CoV-2 nsp3-mac1 [2]; [13]): 2.13%
O=C(Nc1ccccc1)Nc1ccc(C(=O)Nc2ncccc2F)cc1 [ASAP-0000313]	4.588%	10.201%	inhibition at 49.75 µM (SARS-CoV-2 nsp3-mac1 [2]; [14]): 4.59%; inhibition at 99.5 µM (SARS-CoV-2 nsp3-mac1 [2]; [14]): 10.2%
Cc1ncc(C(=O)N(CCC(=O)N2CCNCC2)Cc2cccc(Cl)c2)cc1N [ASAP-0000314]	1.351%	1.305%	inhibition at 49.75 µM (SARS-CoV-2 nsp3-mac1 [2]; [15]): 1.35%; inhibition at 99.5 µM (SARS-CoV-2 nsp3-mac1 [2]; [15]): 1.3%
CC(C)c1c[nH]nc1NC(=O)c1ccc(NC(=O)Nc2ccccc2)cc1 [ASAP-0000315]	6.988%	8.502%	inhibition at 49.75 µM (SARS-CoV-2 nsp3-mac1 [2]; [16]): 6.99%; inhibition at 99.5 µM (SARS-CoV-2 nsp3-mac1 [2]; [16]): 8.5%
CCc1n[nH]c(NC(=O)c2ccc(NC(=O)Nc3ccccc3)cc2)c1Br [ASAP-0000316]	-5.574%	0.467%	inhibition at 49.75 µM (SARS-CoV-2 nsp3-mac1 [2]; [17]): -5.57%; inhibition at 99.5 µM (SARS-CoV-2 nsp3-mac1 [2]; [17]): 0.467%
O=C(Nc1ccccc1)Nc1ccc(C(=O)Nc2nnc(C(F)(F)F)[nH]2)cc1 [ASAP-0000317]	-3.198%	-1.459%	inhibition at 49.75 µM (SARS-CoV-2 nsp3-mac1 [2]; [18]): -3.2%; inhibition at 99.5 µM (SARS-CoV-2 nsp3-mac1 [2]; [18]): -1.46%
O=C(CCN(Cc1cccc(Cl)c1)C(=O)c1c[nH]c(=O)cn1)N1CCNCC1 [ASAP-0000318]	-2.705%	0.98%	inhibition at 49.75 µM (SARS-CoV-2 nsp3-mac1 [2]; [19]): -2.71%; inhibition at 99.5 µM (SARS-CoV-2 nsp3-mac1 [2]; [19]): 0.98%
Nc1ncc(C(=O)N(CCC(=O)N2CCNCC2)Cc2cccc(Cl)c2)cn1 [ASAP-0000319]	-2.76%	-1.726%	inhibition at 49.75 µM (SARS-CoV-2 nsp3-mac1 [2]; [20]): -2.76%; inhibition at 99.5 µM (SARS-CoV-2 nsp3-mac1 [2]; [20]): -1.73%
